Source: PubChem BioAssay (NCI)
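Following 48 hours of exposure in 96-well plates, responses at five concentrations were used to interpolate endpoints linearly. At the GI50, growth is halved. TGI: concentration producing complete growth inhibition.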

What was measured:
Experiment in all cases: DTP human tumour cell line panel, 48 h; in the data active = GI50 below about 0.43 µM; inactive = the rest
[1] = test system: HOP-92 NSCLC
[2] = test system: U251 CNS
[3] = test system: UO-31 renal
[4] = test system: SF-268 CNS
[5] = test system: NCI/ADR-RES ovarian
[6] = test system: MALME-3M melanoma
[7] = test system: UACC-257 melanoma
[8] = test system: IGROV1 ovarian
[9] = test system: SK-MEL-5 melanoma
[10] = test system: SK-OV-3 ovarian
[11] = test system: DU-145 prostate
[12] = test system: COLO 205 colon
[13] = test system: OVCAR-4 ovarian
[14] = test system: K-562 leukemia
[15] = test system: HS 578T breast
[16] = test system: NCI-H460 lung
[17] = test system: A498 renal
[18] = test system: SK-MEL-28 melanoma
[19] = test system: 786-0 renal
[20] = test system: HCT-15 colon
[21] = test system: UACC-62 melanoma
[22] = test system: HL-60(TB) leukemia
[23] = test system: SW-620 colon
[24] = test system: LOX IMVI melanoma
[25] = test system: MCF7 breast
[26] = test system: PC-3 prostate
[27] = test system: RPMI-8226 leukemia
[28] = test system: EKVX NSCLC
[29] = test system: HCT-116 colon
[30] = test system: TK-10 renal
[31] = test system: ACHN renal
[32] = test system: NCI-H226 lung
[33] = test system: MOLT-4 leukemia
[34] = test system: HT29 colon
[35] = test system: OVCAR-5 ovarian
[36] = test system: A549 NSCLC
[37] = test system: SNB-19 CNS
[38] = test system: MDA-MB-435
[39] = test system: RXF 393 renal
[40] = test system: HCC-2998 colon
[41] = test system: NCI-H23 lung
[42] = test system: MDA-MB-231 breast
[43] = test system: KM12 colon
[44] = test system: CCRF-CEM leukemia
[45] = test system: SF-295 CNS
[46] = test system: SK-MEL-2 melanoma
[47] = test system: SN12C renal
[48] = test system: SR leukemia
[49] = test system: BT-549 breast
[50] = test system: T-47D breast
[51] = test system: M14 melanoma
[52] = test system: OVCAR-3 ovarian
[53] = test system: NCI-H522 lung
[54] = test system: SF-539 CNS
[55] = test system: OVCAR-8 ovarian
[56] = test system: CAKI-1 renal
[57] = test system: SNB-75 CNS
[58] = test system: HOP-62 NSCLC
[59] = test system: MDA-N

CN1CCN(c2ccc(NC(=O)c3cncnc3Nc3ccc(OCc4cccc(F)c4)c(Cl)c3)cc2)CC1
1.54 µM: TGI [12]
1.83 µM: TGI [14]
11.6 µM: TGI [15]
18.1 µM: TGI [1]
2.7 µM: TGI [40]
1.87 µM: TGI [38]
3.74 µM: TGI [31]
2.54 µM: TGI [7]
18.7 µM: TGI [37]
2.52 µM: TGI [2]
7.29 µM: TGI [35]
4.23 µM: TGI [44]
> 50 µM: TGI [5] | TGI [8] | TGI [10] | TGI [11] | TGI [13] | TGI [26] | TGI [28] | TGI [30] | TGI [32] | TGI [41] | TGI [43] | TGI [49] | TGI [50] | TGI [52] | TGI [55]
1.88 µM: TGI [23]
1.56 µM: TGI [18]
2.47 µM: TGI [16]
18.8 µM: TGI [57]
3.32 µM: TGI [27]
1.71 µM: TGI [51]
24.7 µM: TGI [17]
2.4 µM: TGI [25]
1.91 µM: TGI [20]
3.28 µM: TGI [53]
2.75 µM: TGI [47]
2.28 µM: TGI [33]
inactive: GI50 [1] 1.95 µM | GI50 [2] 1.07 µM | GI50 [3] 0.893 µM | GI50 [4] 4.91 µM | GI50 [5] 5.27 µM | GI50 [6] 0.85 µM | GI50 [7] 1.07 µM | GI50 [8] 1.78 µM | GI50 [9] 1.55 µM | GI50 [10] 10 µM | GI50 [11] 4.9 µM | GI50 [12] 0.799 µM | GI50 [13] 4 µM | GI50 [14] 0.799 µM | GI50 [15] 1.99 µM | GI50 [16] 1.14 µM | GI50 [17] 1.55 µM | GI50 [18] 0.849 µM | GI50 [19] 0.992 µM | GI50 [20] 0.889 µM | GI50 [21] 0.914 µM | GI50 [22] 1.3 µM | GI50 [23] 0.932 µM | GI50 [24] 0.849 µM | GI50 [25] 0.993 µM | GI50 [26] 1.78 µM | GI50 [27] 1.26 µM | GI50 [28] 10.9 µM | GI50 [29] 0.966 µM | GI50 [30] 22.4 µM | GI50 [31] 1.34 µM | GI50 [32] 40.9 µM | GI50 [33] 0.907 µM | GI50 [34] 1.1 µM | GI50 [35] 1.6 µM | GI50 [36] 1.51 µM | GI50 [37] 2.81 µM | GI50 [38] 0.972 µM | GI50 [39] 0.956 µM | GI50 [40] 1.13 µM | GI50 [41] 4.01 µM | GI50 [42] 0.971 µM | GI50 [43] 2.21 µM | GI50 [44] 1.27 µM | GI50 [45] 6.51 µM | GI50 [46] 3 µM | GI50 [47] 1.13 µM | GI50 [48] 0.939 µM | GI50 [49] > 50 µM | GI50 [50] 3.63 µM | GI50 [51] 0.895 µM | GI50 [52] 3.58 µM | GI50 [53] 1.14 µM | GI50 [54] 0.847 µM | GI50 [55] 7.84 µM | GI50 [56] 1.48 µM | GI50 [57] 5.77 µM | GI50 [58] 2.53 µM
1.6 µM: TGI [54]
1.99 µM: TGI [42]
2.12 µM: TGI [29]
1.61 µM: TGI [24]
15.9 µM: TGI [4]
16.5 µM: TGI [45]
5.2 µM: TGI [9]
1.9 µM: TGI [39]
1.7 µM: TGI [3]
6.01 µM: TGI [56]
12.2 µM: TGI [46]
2.46 µM: TGI [48]
5.05 µM: TGI [36]
1.74 µM: TGI [6] | TGI [21]
2.03 µM: TGI [19]
2.65 µM: TGI [34]
16.1 µM: TGI [58]
3.44 µM: TGI [22]

O=C(Cn1c(=O)oc2ccc(C(=O)c3ccc(F)cc3)cc21)c1ccccc1
> 100 µM: TGI [1] | TGI [2] | TGI [3] | TGI [4] | TGI [5] | TGI [6] | TGI [7] | TGI [8] | TGI [9] | TGI [10] | TGI [11] | TGI [12] | TGI [13] | TGI [14] | TGI [15] | TGI [16] | TGI [18] | TGI [19] | TGI [20] | TGI [21] | TGI [22] | TGI [23] | TGI [24] | TGI [25] | TGI [26] | TGI [27] | TGI [29] | TGI [30] | TGI [31] | TGI [32] | TGI [33] | TGI [34] | TGI [35] | TGI [36] | TGI [37] | TGI [38] | TGI [39] | TGI [59] | TGI [40] | TGI [41] | TGI [42] | TGI [43] | TGI [44] | TGI [46] | TGI [47] | TGI [48] | TGI [50] | TGI [51] | TGI [53] | TGI [54] | TGI [55] | TGI [56] | TGI [57] | TGI [58]
93.3 µM: TGI [17]

C[N+]12CCN(c3ccccc31)c1ccccc12
> 10 µM: TGI [1] | TGI [2] | TGI [3] | TGI [4] | TGI [5] | TGI [8] | TGI [11] | TGI [12] | TGI [13] | TGI [17] | TGI [18] | TGI [20] | TGI [23] | TGI [26] | TGI [28] | TGI [30] | TGI [31] | TGI [34] | TGI [35] | TGI [36] | TGI [37] | TGI [38] | TGI [39] | TGI [41] | TGI [42] | TGI [43] | TGI [45] | TGI [47] | TGI [51] | TGI [52] | TGI [55] | TGI [56] | TGI [57]
5.42 µM: TGI [9]
8.56 µM: TGI [59]
